Test results reported in article PMC8161390, “Salinity Alters Toxicity of Commonly Used Pesticides in a Model Euryhaline Fish Species (Menidia beryllina)” (Toxics, 2021).
Values after ≈ are worked out from the molar mass of the structure shown. Read-outs that look alike come from different tables or passages of the source.

Tests used:
[1] = Inland Silverside embryo-to-larva 12-day exposure bioassay (mortality, dose-response); conditions: Menidia beryllina (Inland Silverside), in vivo, <24 hpf embryos to 96 hph larvae, nominal concentrations
Procedure: (§1) Inland Silverside embryos were removed from the spawning substrate, assessed for fertilization with a VWR VistaVision Dissecting Scope (VWR International, Radnor, PA, USA), and randomly placed in exposure wells with 1 mL of clean artificial seawater (ASW) made from reverse osmosis water and Instant Ocean Sea Salt (Spectrum Brands, Blacksburg, VA, USA). Once all well plates (Supplemental Material and Video S1) were loaded, each test was initiated by pouring the appropriate exposure solution into the well plate until embryos were submerged in 8 mL of exposure solution. Organisms were exposed from <24 h post fertilization (hpf) as embryos to 96 h post hatch (hph) larvae for a total exposure period of 12 days. […] After hatching, fish larvae, which still had their yolk sacs, were fed Gemma Microdiet (Skretting, Westbrook, ME, USA) once per day and were allowed to feed for at least two hours prior to water changes. […] Temperature, pH, salinity, and dissolved oxygen were measured daily before and after water changes using a YSI Professional Plus Quatro water quality meter (YSI Incorporated, Yellow Springs, OH, USA) and API Ammonia Test Kit and can be found in Table S1.
(§2) This suite of chosen contaminants represents commonly used pesticides with a range of log KOW values, water solubilities, and target organs. Six concentrations (Table 1), including a solvent control, were assessed per test to determine the appropriate dose–response relationships. Initial test concentrations were determined from existing mortality data from the United State EPA ECOTOX database. Where testing on saltwater species was not available, freshwater data were used to supplement. […] The fourth concentration was selected based off existing mortality data and increased by one magnitude to the fifth concentration to ensure mortality. All lower concentrations were decreased by one subsequent magnitude to ensure an appropriate dose response could be achieved.
(§3) Chemical stock solutions were made at the start of each test from which new exposure solutions were made daily in ASW immediately prior to water changes. There were six replicates per concentration and two organisms per replicate. […] At the end of the exposure period, the final survival data were recorded, and larval fish were humanely sacrificed. Exposures were approved and conducted under the Oregon State University Institutional Animal Care and Use Committee (IACUC) protocol #0035.
(§4) Statistical analysis was conducted in R version 4.0 (Vienna, Austria) and R Studio version 1.3.1093 (Boston, MA, US). The dose–response analysis consisted of fitting two-parameter log-logistic models to all seven compounds at both salinities (14 fits in total) using maximum likelihood optimization in the package drc version 3.0-1 [42]. […] In the Monte Carlo procedure, the salinity treatments for all of the replicates in the dataset were permuted (keeping the sample sizes for each salinity the same), then new dose–response curves were fit to each salinity treatment. The p-value testing whether the observed difference in LC10 and LC50 values was greater than that expected by random chance was calculated as the proportion of Monte Carlo simulations in which the difference in LC values was greater than the original observed difference. […] All values are reported as the mean ± standard error. All statistical analysis and dose–response curves were made and reported with nominal concentrations.

[2] = tested on: Inland Silverside (Menidia beryllina); experiment: as above; conditions: <24 hpf embryos to 96 hph larvae, 12 days, nominal concentrations; for 5 PSU LC10: 5 PSU salinity; for 15 PSU LC10: 15 PSU salinity
Procedure: as §1, §2, §3, §4

[3] = cited from earlier work
[4] = design: method as in earlier work; conditions: cited from earlier work
[5] = tested on: Rainbow Trout (Oncorhynchus mykiss); conditions: freshwater; 96-h acute; range of minimum to maximum reported LC50 values; ref U.S. EPA ECOTOX database; cited from earlier work
[6] = design: method as in PMID 18829159; conditions: reported environmental persistence; cited from earlier work
[7] = irradiation of a 300 W mercury bulb, cited from earlier work

Structure (SMILES)	LC50 at 12 days ([1]; 5 PSU LC50, 5 PSU salinity) [ng/mL]	LC50 at 12 days ([1]; 15 PSU LC50, 15 PSU salinity) [ng/mL]	5 PSU LC10 [2] [ng/mL]	15 PSU LC10 [2] [ng/mL]	log KOW [3]	Water Solubility [4] [µg/mL]	FW LC50 [5] [ng/mL]	log KOW ([3]; values quoted in discussion of Delta smelt study)	environmental half-life [6]	half-life ([7]; distilled water) [h]	half-life ([7]; seawater) [h]
CCCC(Cn1cncn1)c1ccc(Cl)cc1Cl (centres unmarked) [Penconazole, penconazole]	107 (≈ 0.377 µM)	20.2 (≈ 0.0711 µM)	0.235	0.0244	3.7	–	–	–	–	–	–
Cc1c(COC(=O)[C@@H]2[C@H](/C=C(\Cl)C(F)(F)F)C2(C)C)cccc1-c1ccccc1 (racemic) [Bifenthrin, bifenthrin]	0.16 (≈ 0.000378 µM)	0.12 (≈ 0.000284 µM)	0.0227	0.00533	6.6	0.1	0.15 to 14.7	–	–	–	–
CC1(C)C(C=C(Cl)Cl)C1C(=O)OCc1cccc(Oc2ccccc2)c1 (centres unmarked) [permethrin]	–	–	–	–	–	–	–	6.9	–	–	–
C[n+]1ccc(-c2cc[n+](C)cc2)cc1 [Paraquat, paraquat dichloride hydrate]	37500	18100	54.7	24.5	−4.5	620000	15000 to 38680	–	around two	–	–
CCCCC(C#N)(Cn1cncn1)c1ccc(Cl)cc1 (centres unmarked) [Myclobutanil, myclobutanil]	3760 (≈ 13 µM)	1550 (≈ 5.37 µM)	–	–	2.8	132	4200 to 5270	–	–	–	–
CCOP(=S)(OCC)Oc1nc(Cl)c(Cl)cc1Cl [Chlorpyrifos, chlorpyrifos]	8.03 (≈ 0.0229 µM)	2.4 (≈ 0.00685 µM)	0.137	0.0393	4.7	–	<1 to 301	–	–	–	–
Nc1c(Cl)cc([N+](=O)[O-])cc1Cl [Dicloran, dicloran]	–	–	–	–	2.8	6.3	–	–	–	–	–
CC(C)(C)C(=O)C(Oc1ccc(Cl)cc1)n1cncn1 (centres unmarked) [Triadimefon, triadimefon]	–	–	–	–	3.2	64	–	–	–	0.9	2.97
